Experimental data taken from article PMC6142817, “New Urea Derivatives Are Effective Anti-senescence Compounds Acting Most Likely via a Cytokinin-Independent Mechanism” (Frontiers in Plant Science, 2018).

What was measured:
[1] = tested on: young wheat plants under salt stress; assay: Salt stress experiment; type: in vivo, Triticum a. cv. Hereward; details: 100 nM, 75 mM NaCl
Description: A plastic container was filled with 45 g of perlite and 200 mL of Hoagland's solution (control) or with the addition of ASES to a final concentration of 100 nM. Sterilized seeds of Triticum a. cv. Hereward (6 g) were sown on the surface. Both treatments were done in two repetitions. The plants were left to grow in optimal conditions (22°C, 16/8, light/dark, 130 μM m^−2 s^−1, humidity 60%) for 7 days. During this period, most of the water evaporated and the containers were adjusted to the same weight by the addition of fresh distilled water. After this, all the containers contained 50 g (mL) of water. Then 100 mM NaCl solution was added in the final volume of 150 mL. Final concentration of the salt was 75 mM. The plants were then left to grow, analyzed visually and photographed at certain time-points.

CRE1/AHK4 = CRE1/AHK4 (Arabidopsis thaliana, UniProt Q9C5U0); assay: Cytokinin receptor activation assay in E. coli (CRE1/AHK4); type: cell-based; set-up: expressed in transfected cells; host or cells: Escherichia coli strain KMI001, plasmid pIN-IIIAHK4; details: E. coli bacterial receptor assay
Chain of CRE1/AHK4 (Q9C5U0 whole entry): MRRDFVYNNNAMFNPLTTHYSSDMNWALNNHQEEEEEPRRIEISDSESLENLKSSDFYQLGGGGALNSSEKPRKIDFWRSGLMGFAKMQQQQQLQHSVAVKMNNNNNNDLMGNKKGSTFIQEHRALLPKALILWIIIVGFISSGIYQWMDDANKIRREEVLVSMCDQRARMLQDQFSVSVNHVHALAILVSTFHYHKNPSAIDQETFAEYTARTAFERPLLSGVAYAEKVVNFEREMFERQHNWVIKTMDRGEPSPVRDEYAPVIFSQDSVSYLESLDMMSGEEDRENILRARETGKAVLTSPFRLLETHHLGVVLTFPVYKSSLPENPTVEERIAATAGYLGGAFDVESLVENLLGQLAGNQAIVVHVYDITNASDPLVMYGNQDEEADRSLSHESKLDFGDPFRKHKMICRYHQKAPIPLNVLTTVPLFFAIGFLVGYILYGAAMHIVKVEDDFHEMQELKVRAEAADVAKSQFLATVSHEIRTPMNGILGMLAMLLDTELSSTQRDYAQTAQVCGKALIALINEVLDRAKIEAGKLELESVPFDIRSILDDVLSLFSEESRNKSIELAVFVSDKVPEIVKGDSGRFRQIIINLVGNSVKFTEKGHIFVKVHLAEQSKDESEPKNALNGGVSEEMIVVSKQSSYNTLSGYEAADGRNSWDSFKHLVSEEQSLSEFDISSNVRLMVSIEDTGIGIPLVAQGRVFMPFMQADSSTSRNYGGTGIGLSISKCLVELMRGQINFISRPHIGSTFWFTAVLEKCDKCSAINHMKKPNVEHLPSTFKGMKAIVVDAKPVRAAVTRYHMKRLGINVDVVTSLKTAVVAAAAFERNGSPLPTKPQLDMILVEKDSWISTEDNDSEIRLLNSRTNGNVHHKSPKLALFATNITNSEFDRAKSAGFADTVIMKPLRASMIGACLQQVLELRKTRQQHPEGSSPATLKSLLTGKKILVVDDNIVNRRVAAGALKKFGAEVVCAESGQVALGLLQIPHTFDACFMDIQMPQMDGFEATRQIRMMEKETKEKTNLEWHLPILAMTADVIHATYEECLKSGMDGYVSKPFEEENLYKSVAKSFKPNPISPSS
Source text: The activity of this enzyme is finally measured in the assay and corresponds to the ability of the tested compound to activate this cytokinin receptor. Both assays were done at least twice and the presented graphs are the most representative examples.

COCCNC(=O)Nc1cnns1 [ASES, 1-(2-methoxy-ethyl)-3-1,2,3-thiadiazol-5-yl-urea]
delay of senescence of the individual leaves compared to the untreated control [1]: 5 to 6 days | % of plants with dry and/or completely yellow at least one quarter of the first leaf ([1]; twenty days after planting, control 81%): 8% | ability to activate the CRE1/AHK4 receptor (CRE1/AHK4): No other derivative from the series, including ASES, was able to activate
